This passage reports EC50 results from patent US20150087673A1, “METHODS FOR USING AND BIOMARKERS FOR AMPK-ACTIVATING COMPOUNDS” (RIGEL PHARMACEUTICALS, INC., priority 2013, published 2015).

pEC50: −log10 of the molar value.

In this experiment the test system is AMPK. The experiment in a line: AMPK activation assay (enzyme-linked immunosorbent assay). Format: cell-based. As for the experimental part:
Compounds were assayed for their ability to activate AMPK using an enzyme-linked immunosorbent assay. Reagents and procedures for measuring AMPK activation are well known and kits for AMPK activation assays are commercially available.
The term pEC50 denotes the EC50 on a negative log10 scale, so that one unit is a factor of ten. `CC(C)(C)OC(=O)N1CCC(NC(=O)c2ccc(C(=O)N3CCC(Oc4ccc(C#N)cc4)CC3)nc2)CC1` [Compound 333, tert-butyl 4-(6-(4-(4-cyanophenoxy)piperidine-1-carbonyl)nicotinamido) piperidine-1-carboxylate] had a pEC50 of more than 6.30.

`N#Cc1ccc(CN2CCC(NC(=O)c3ccc(C(=O)N4CCC(Oc5ccc(NS(=O)(=O)C6CC6)cc5)CC4)nc3)CC2)cc1` [Compound 448, N-(1-(4-cyanobenzyl)piperidin-4-yl)-6-(4-(4-(cyclopropanesulfonamido)phenoxy)piperidine-1-carbonyl)nicotinamide] gave a pEC50 of 5.30 to 6.00.

In the case of `O=C(NC1CCN(Cc2ccccc2)CC1)c1ccc(C(=O)N2CCN(c3ccncc3)CC2)cn1` [Compound 96, N-(1-benzylpiperidin-4-yl)-5-(4-(pyridin-4-yl)piperazine-1-carbonyl)picolinamide], the pEC50 is less than 5.00.

As for `N#Cc1ccc(OC2CCN(C(=O)c3ccc(C(=O)NC4CCN(c5ccc(C#N)cc5)CC4)cn3)CC2)cc1` [Compound 418, 6-(4-(4-cyanophenoxy)piperidine-1-carbonyl)-N-(1-(4-cyanophenyl)piperidin-4-yl)nicotinamide], the pEC50 was more than 6.30.

As for `O=C(Nc1ccc(Oc2ccc(F)cc2)nc1)c1ccc(C(=O)N2CCN(Cc3ccc(F)cc3)CC2)nc1` [Compound 334, 6-(4-(4-fluorobenzyl)piperazine-1-carbonyl)-N-(6-(4-fluorophenoxy)pyridin-3-yl)nicotinamide], the pEC50 is more than 6.30.

`N#Cc1ccc(CN2CCC(NC(=O)c3ccc(C(=O)N4CCN(c5ccc(C(=O)C(F)(F)F)cc5)CC4)cn3)CC2)cc1` [Compound 263, N-(1-(4-cyanobenzyl)piperidin-4-yl)-5-(4-(4-(2,2,2-trifluoroacetyl)phenyl)piperazine-1-carbonyl)picolinamide] had a pEC50 of more than 6.30.

Consider `O=C(c1ccc(C(=O)N2CCN(CCc3ccccc3)CC2)nc1)N1CCN(Cc2ccc(F)cc2)CC1` [Compound 88, (4-(4-fluorobenzyl)piperazin-1-yl)(6-(4-phenethylpiperazine-1-carbonyl)pyridin-3-yl)methanone], for which the pEC50 is 5.30 to 6.00.

Turning to `O=C(Nc1cccc(-c2ccccc2)c1)c1ccc(C(=O)N2CCN(Cc3ccc(F)cc3)CC2)cn1` [Compound 12], the pEC50 is 5.00 to 5.30.

Turning to `COc1ccc(CN2CCN(C(=O)c3ccc(C(=O)NC4CCN(Cc5ccc(C#N)cc5)CC4)nc3)CC2)cc1` [Compound 101, N-(1-(4-cyanobenzyl)piperidin-4-yl)-5-(4-(4-methoxybenzyl)piperazine-1-carbonyl)picolinamide], the pEC50 was more than 6.30.

`O=C(Nc1ccc(Oc2ccc(F)cc2)nc1)c1ccc(C(=O)N2CCC(Oc3ccc(S(F)(F)(F)(F)F)cc3)CC2)nc1` [Compound 496, N-(6-(4-fluorophenoxy)pyridin-3-yl)-6-(4-(4-(pentafluorosulfanyl)phenoxy)piperidine-1-carbonyl)nicotinamide] showed a pEC50 of more than 6.30.

`N#Cc1ccc(CN2CCC(NC(=O)c3ccc(C(=O)N4CCC(Oc5ccc(SC(F)(F)F)cc5)CC4)nn3)CC2)cc1` [Compound 436, N-(1-(4-cyanobenzyl)piperidin-4-yl)-6-(4-(4-(trifluoromethylthio)phenoxy)piperidine-1-carbonyl)pyridazine-3-carboxamide] showed a pEC50 of more than 6.30.

The molecule `COc1ccc(C(=O)C2CCN(C(=O)c3ccc(C(=O)NC4CCN(Cc5cccc(OC)c5)CC4)cn3)CC2)cc1` [Compound 425, 6-(4-(4-methoxybenzoyl)piperidine-1-carbonyl)-N-(1-(3-methoxybenzyl)piperidin-4-yl) nicotinamide] gave a pEC50 of more than 6.30.

Turning to `CS(=O)(=O)c1ccc(N2CCC(NC(=O)c3ccc(C(=O)N4CCN(Cc5ccc(F)cc5)CC4)nc3)CC2)cc1` [Compound 421, 6-(4-(4-fluorobenzyl)piperazine-1-carbonyl)-N-(1-(4-(methylsulfonyl)phenyl)piperidin-4-yl)nicotinamide], the pEC50 is 5.30 to 6.00.

On to `O=C(NC1CCN(Cc2cc(F)cc(F)c2)CC1)c1ccc(C(=O)N2CCC(Oc3ccc(C(F)(F)F)cc3)CC2)cn1` [Compound 294, N-(1-(3,5-difluorobenzyl)piperidin-4-yl)-5-(4-(4-(trifluoromethyl)phenoxy)piperidine-1-carbonyl)picolinamide], for which the pEC50 is more than 6.30.

`N#Cc1ccc(CN2CCC(NC(=O)c3ccc(C(=O)N4CCC(C(=O)c5ccc(F)cc5F)CC4)cn3)CC2)cc1` [Compound 271, N-(1-(4-cyanobenzyl)piperidin-4-yl)-5-(4-(2,4-difluorobenzoyl)piperidine-1-carbonyl)picolinamide] gave a pEC50 of more than 6.30.

As for `N#Cc1ccc(CN2CCC(NC(=O)c3ccc(C(=O)N4CCC(Oc5ccc(S(=O)(=O)C6CC6)cc5)CC4)nc3)CC2)cc1` [Compound 246, N-(1-(4-cyanobenzyl)piperidin-4-yl)-6-(4-(4-(cyclopropylsulfonyl)phenoxy)piperidine-1-carbonyl)nicotinamide], the pEC50 is more than 6.30.

As for `N#Cc1cccc(Oc2ccc(NC(=O)c3ccc(C(=O)N4CCN(Cc5ccc(F)cc5)CC4)cn3)cc2)c1` [Compound 56, N-(4-(3-cyanophenoxy)phenyl)-5-(4-(4-fluorobenzyl)piperazine-1-carbonyl)picolinamide], the pEC50 is more than 6.30.

Regarding `CN(C)C(=O)c1ccc(Oc2ccc(NC(=O)c3ccc(C(=O)N4CCC(C(=O)c5ccc(F)cc5F)CC4)nc3)cn2)cc1` [Compound 481, 6-(4-(2,4-difluorobenzoyl)piperidine-1-carbonyl)-N-(6-(4-(dimethylcarbamoyl)phenoxy)pyridin-3-yl)nicotinamide], the pEC50 is more than 6.30.

`O=C(Nc1ccc(Oc2ccc(F)cc2)nc1)c1ccc(C(=O)N2CCC(Oc3cccc(NC(=O)C4CC4)c3)CC2)nc1` [Compound 433, 6-(4-(3-(cyclopropanecarboxamido)phenoxy)piperidine-1-carbonyl)-N-(6-(4-fluorophenoxy)pyridin-3-yl)nicotinamide] had a pEC50 of more than 6.30.

As to `COc1ccc(C(=O)C2CCN(C(=O)c3cnc(C(=O)Nc4ccc(Oc5ccc(F)cc5)nc4)cn3)CC2)cc1` [Compound 204, N-(6-(4-fluorophenoxy)pyridin-3-yl)-5-(4-(4-methoxybenzoyl)piperidine-1-carbonyl)pyrazine-2-carboxamide], the pEC50 was more than 6.30.

With `O=C(c1ccc(Nc2ccc(Cc3ccccc3)cc2)nc1)N1CCN(Cc2ccc(F)cc2)CC1` [Compound 30], the pEC50 is 5.30 to 6.00.

With `N#Cc1ccc(OC2CCN(C(=O)c3ccc(C(=O)N[C@H]4CC[C@@H](Oc5ccc(C#N)cc5)CC4)cn3)CC2)cc1` [Compound 321, N-((cis)-4-(4-cyanophenoxy)cyclohexyl)-6-(4-(4-cyanophenoxy)piperidine-1-carbonyl)nicotinamide], the pEC50 is more than 6.30.

As for `CC1(C)CN(C(=O)c2ccc(C(=O)NC3CCN(Cc4ccc(C#N)cc4)CC3)nc2)CCN1Cc1ccc(F)cc1` [Compound 125, N-(1-(4-cyanobenzyl)piperidin-4-yl)-5-(4-(4-fluorobenzyl)-3,3-dimethylpiperazine-1-carbonyl)picolinamide], the negative-log EC50 (pEC50) is more than 6.30.

Take `O=C(Nc1ccc(-c2ccsc2)cc1)c1ccc(C(=O)N2CCN(Cc3ccc(F)cc3)CC2)cn1` [Compound 62, 5-(4-(4-fluorobenzyl)piperazine-1-carbonyl)-N-(4-(thiophen-3-yl)phenyl)picolinamide]: the pEC50 is more than 6.30.

In turn, `N#Cc1ccc(CN2CC[C@@H](NC(=O)c3ccc(C(=O)N4CCN(Cc5ccc(F)cc5)CC4)cn3)C2)cc1` [Compound 118, (R)-N-(1-(4-cyanobenzyl)pyrrolidin-3-yl)-5-(4-(4-fluorobenzyl)piperazine-1-carbonyl)picolinamide] had a pEC50 of more than 6.30.

Consider `COc1cccc(CN2CCC(NC(=O)c3ccc(C(=O)N4CCC(S(=O)(=O)c5ccc(F)cc5)CC4)nc3)CC2)c1` [Compound 475, 6-(4-(4-fluorophenylsulfonyl)piperidine-1-carbonyl)-N-(1-(3-methoxybenzyl)piperidin-4-yl)nicotinamide], for which the pEC50 is 5.30 to 6.00.

With `Cc1cc(CN2CCN(C(=O)c3ccc(C(=O)NC4CCN(Cc5ccccc5)CC4)nc3)CC2)no1` [Compound 85, N-(1-benzylpiperidin-4-yl)-5-(4-((5-methylisoxazol-3-yl)methyl)piperazine-1-carbonyl)picolinamide], the pEC50 was 5.30 to 6.00.

`COc1ccc(CN2CCC(NC(=O)c3ccc(C(=O)N4CCC(Oc5ccc(S(C)(=O)=O)cc5)CC4)nc3)CC2)cc1` [Compound 237, N-(1-(4-methoxybenzyl)piperidin-4-yl)-6-(4-(4-(methylsulfonyl)phenoxy)piperidine-1-carbonyl)nicotinamide] gave a pEC50 of 5.30 to 6.00.

Take `CC(=O)Nc1ccc(OC2CCN(C(=O)c3ccc(C(=O)NC4CCN(Cc5ccc(F)cc5)CC4)cn3)CC2)cc1` [Compound 406, 6-(4-(4-acetamidophenoxy)piperidine-1-carbonyl)-N-(1-(4-fluorobenzyl)piperidin-4-yl)nicotinamide]: the pEC50 is 6.00 to 6.30.

In turn, `O=C(NC1CCN(Cc2ccc(OC(F)(F)F)cc2)CC1)c1ccc(C(=O)N2CCC(C(=O)c3ccc(N4CCCC4)cc3)CC2)nc1` [Compound 440, 6-(4-(4-(pyrrolidin-1-yl)benzoyl)piperidine-1-carbonyl)-N-(1-(4-(trifluoromethoxy)benzyl)piperidin-4-yl)nicotinamide] gave a pEC50 of more than 6.30.

The molecule `O=C(Nc1ccc(Oc2ccc(F)cc2)nc1)c1ccc(C(=O)N2CCC(C(=O)c3ccc(F)cc3)CC2)cn1` [Compound 272, 5-(4-(4-fluorobenzoyl)piperidine-1-carbonyl)-N-(6-(4-fluorophenoxy)pyridin-3-yl)picolinamide] gave a pEC50 of more than 6.30.

Regarding `N#Cc1ccc(CN2CCC(NC(=O)c3ccc(C(=O)N4CCC(S(=O)(=O)c5ccc(F)cc5)CC4)nc3)CC2)cc1` [Compound 471, N-(1-(4-cyanobenzyl)piperidin-4-yl)-6-(4-(4-fluorophenylsulfonyl)piperidine-1-carbonyl)nicotinamide], the pEC50 is 5.30 to 6.00.

`N#Cc1ccc(-c2ccc(Nc3ccc(C(=O)NC4CCN(Cc5ccccc5)CC4)nc3)cc2)cc1` [Compound 119, N-(1-benzylpiperidin-4-yl)-5-(4′-cyanobiphenyl-4-ylamino)picolinamide] showed a pEC50 of 5.30 to 6.00.
